# Laboratory results: article PMC12785803, “Novel ACE-Inhibitory Peptides from Royal Jelly Proteins: Comprehensive Screening, Mechanistic Insights, and Endothelial Protection” (Foods, 2025)
# Like-named read-outs stand apart in the source and are kept apart here.
# How the values were obtained:
# [1] = system: EA.hy926 cells; test: GSH-Px activity in H2O2-damaged cells; assay type: cell-based; conditions: 500 μmol/L H2O2 alone; control 165.92 ± 5.21
# Experimental: (§1) The activities of SOD and GSH-Px were assessed as follows. EA.hy926 cells were seeded in 6-well plates at 4 × 10^5 cells per well and cultured overnight. After attachment, the cells were serum-starved in high-glucose DMEM containing 1% FBS for 12 h, and then treated for 24 h with peptide solutions at the indicated concentrations or with captopril. […] After treatment, the cells were washed with ice-cold PBS, lysed on ice, and centrifuged to collect the supernatants. SOD and GSH-Px activities were measured spectrophotometrically at 550 nm and 412 nm, respectively, using a microplate reader. Enzyme activities were calculated, normalized to total protein content, and expressed as U/mg protein.
# [2] = system: EA.hy926 cells; test: SOD activity in H2O2-damaged cells; assay type: cell-based; conditions: 500 μmol/L H2O2 alone; control 126.15 ± 9.22
# Experimental: as §1
# [3] = system: EA.hy926 cells; test: ET-1 level in Ang II-stimulated cells (ELISA); assay type: cell-based; conditions: Ang II 1 μmol/L alone; control 13.82 ± 0.69
# Experimental: (§2) To evaluate the effect of the peptide on endothelial function, NO and ET-1 levels were measured in this study. Briefly, EA.hy926 cells were seeded in 6-well plates at a density of 4 × 10^5 cells/well and allowed to adhere overnight. After removing the medium, cells were incubated with 1 μmol/L Ang II for 12 h to induce endothelial dysfunction. Subsequently, the peptide solutions at different concentrations (0.1, 0.2, and 0.4 mg/mL) or the captopril solutions were added, and the cells were incubated for an additional 24 h. For the blank control group, the cells received no treatment. After incubation, the culture supernatants were collected and centrifuged to remove debris. Both NO and ET-1 contents in the supernatants were quantified using commercial kits according to the manufacturer’s protocols. NO content was determined using the Griess reaction (OD = 550 nm), and ET-1 levels were measured via enzyme-linked immunosorbent assay (ELISA) (OD = 450 nm). Absorbance values were recorded at the corresponding wavelengths using a microplate reader (Spark 10M, Tecan, Männedorf, Switzerland).
# [4] = system: EA.hy926 cells; test: NO level in Ang II-stimulated cells (Griess); assay type: cell-based; conditions: Ang II 1 μmol/L alone; control 109.8 ± 3.93
# Experimental: as §2
# [5] = system: EA.hy926 cells; test: Wound healing assay (Ang II-induced migration); assay type: cell-based; conditions: Ang II 1 μmol/L alone
# Experimental: The effect of peptides on endothelial cell migration was evaluated using a wound healing assay. Briefly, EA.hy926 cells were seeded into 6-well plates and cultured at 37 °C in a humidified atmosphere containing 5% CO2. When the cells reached full confluence, they were treated with 1 μmol/L Ang II for 12 h to induce endothelial dysfunction. Subsequently, a straight scratch was created across the cell monolayer using a sterile 200 μL pipette tip. Detached cells were gently removed by rinsing with PBS, leaving a clear cell-free wound area. To minimize proliferation interference, cells were then incubated in high-glucose DMEM containing 1% FBS, supplemented with different concentrations of the peptides or captopril. Images of the same wound area were captured at 0 h, 6 h, and 24 h using a fluorescence microscope (Axio Observer, Zeiss, Jena, Germany), and the wound area was quantified using ImageJ software (version 1.54g).
# [6] = system: ACE; set-up: method as in 4 sources, ref Han et al. [33] ||| ref 45 = [45]; PMID 35323475; doi:10.3390/md20030176; 45. Zheng S.-L. Luo Q.-B. Suo S.-K. Zhao Y.-Q. Chi C.-F. Wang B. Preparation, Identification, Molecular Docking Study and Protective Function on HUVECs of Novel ACE Inhibitory Peptides from Protein Hy ||| ref 36 = [36]; PMID 37888451; doi:10.3390/md21100516; 36. Hu Y.-D. Xi Q.-H. Kong J. Zhao Y.-Q. Chi C.-F. Wang B. Angiotensin-I-Converting Enzyme (ACE)-Inhibitory Peptides from the Collagens of Monkfish ( Lophius litulon ) Swim Bladders: Isolation, Charac ||| ref 46 = [46]; PMID 37944395; doi:10.1016/j.foodchem.2023.137921; 46. Du T. Xu Y. Xu X. Xiong S. Zhang L. Dong B. Huang J. Huang T. Xiao M. Xiong T. ACE Inhibitory Peptides from Enzymatic Hydrolysate of Fermented Black Sesame Seed: Random Forest-Based Optimization; conditions: cited from earlier work
# Description: These comparisons support the interaction profile observed for PY ...
# [7] = system: ACE; conditions: cited from earlier work
# Description: As compared to traditional experiment-based screening approaches for ACE-inhibitory peptides, which are time-consuming and labor-intensive, an in silico strategy that integrates peptidomic analysis with virtual screening has emerged as a more efficient and cost-effective approach for identifying ACE-inhibitory peptides from food resources. For example, in a previous study by our group, a novel ACE-inhibitory peptide, MMDF, was identified from the simulated digest of oyster proteins using a virtual screening pipeline that incorporated bioactivity prediction, physicochemical proper ... || In recent years, the hydrolysates of royal jelly proteins (RJPs) have gained increasing attention due to their broad spectrum of biological activities, including antioxidant, antibacterial, anti-aging, and antihypertensive properties, which are largely attributed to their favorable amino acid composition and sequence characteristics.
# [8] = biological target: T1, Angiotensin-converting enzyme (ACE) (Oryctolagus cuniculus, UniProt P12822); test: In vitro ACE-inhibitory activity (HHL substrate, HPLC of hippuric acid); assay type: biochemical; conditions: tested at 0.5 mg/mL, p < 0.05
# T1 sequence (P12822 34-1310): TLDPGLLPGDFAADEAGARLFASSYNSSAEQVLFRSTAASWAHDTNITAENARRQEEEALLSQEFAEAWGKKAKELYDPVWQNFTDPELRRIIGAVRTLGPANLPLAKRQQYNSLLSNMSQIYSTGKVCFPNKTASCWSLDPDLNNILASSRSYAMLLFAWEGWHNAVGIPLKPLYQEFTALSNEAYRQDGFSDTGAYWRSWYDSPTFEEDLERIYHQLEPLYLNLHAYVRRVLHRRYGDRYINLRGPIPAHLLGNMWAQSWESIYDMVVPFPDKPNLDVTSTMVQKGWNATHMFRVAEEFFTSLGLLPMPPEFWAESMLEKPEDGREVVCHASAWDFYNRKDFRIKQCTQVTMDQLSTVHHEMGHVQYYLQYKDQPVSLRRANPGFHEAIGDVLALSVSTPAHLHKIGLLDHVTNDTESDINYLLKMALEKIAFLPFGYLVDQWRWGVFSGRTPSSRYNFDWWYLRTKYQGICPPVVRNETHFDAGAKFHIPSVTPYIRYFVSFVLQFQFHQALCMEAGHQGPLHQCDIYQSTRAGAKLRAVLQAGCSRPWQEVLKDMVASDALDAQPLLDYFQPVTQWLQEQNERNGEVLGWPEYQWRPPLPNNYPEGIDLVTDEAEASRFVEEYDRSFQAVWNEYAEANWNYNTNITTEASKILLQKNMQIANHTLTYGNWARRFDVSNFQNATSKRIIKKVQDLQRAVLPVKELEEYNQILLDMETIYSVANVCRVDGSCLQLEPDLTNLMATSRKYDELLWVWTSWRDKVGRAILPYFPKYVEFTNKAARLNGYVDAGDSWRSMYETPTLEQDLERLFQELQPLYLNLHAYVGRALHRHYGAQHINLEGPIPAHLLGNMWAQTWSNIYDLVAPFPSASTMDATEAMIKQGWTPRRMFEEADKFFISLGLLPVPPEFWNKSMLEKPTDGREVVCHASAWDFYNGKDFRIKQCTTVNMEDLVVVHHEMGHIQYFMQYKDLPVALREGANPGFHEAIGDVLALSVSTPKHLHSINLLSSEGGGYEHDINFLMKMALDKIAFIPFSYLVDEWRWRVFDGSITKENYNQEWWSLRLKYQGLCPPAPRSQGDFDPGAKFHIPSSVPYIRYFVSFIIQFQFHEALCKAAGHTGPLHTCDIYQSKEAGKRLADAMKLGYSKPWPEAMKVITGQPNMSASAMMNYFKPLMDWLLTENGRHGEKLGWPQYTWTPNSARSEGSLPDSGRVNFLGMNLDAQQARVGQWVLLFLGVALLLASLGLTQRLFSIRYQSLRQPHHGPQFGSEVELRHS
# Experimental: The ACE-inhibitory activity of the peptides was measured according to a previously reported method. Briefly, 50 μL of the peptide solution, prepared in borate buffer (pH 8.3) containing 0.3 mol/L NaCl, was mixed with 100 μL of HHL (5.82 mmol/L) prepared in the same buffer. After incubation at 37 °C for 5 min, the reaction was initiated by adding 15 μL of ACE solution (0.1 U/mL), also prepared in the borate buffer described above. The mixture was then incubated at 37 °C for 30 min and terminated by adding 150 μL of 1 mol/L HCl. For the blank control, the same procedure was performed using 50 μL of the borate buffer instead of the peptide solution.
# The released hippuric acid (HA) was quantified using an Elite P3200 high-performance liquid chromatography (HPLC) system (Dalian Elite Analytical Instruments Co., Ltd., Dalian, China) equipped with a C18 reversed-phase column (Waters, Milford, MA, USA; 150 mm × 4.6 mm, 5 μm) at a detection wavelength of 228 nm. The mobile phase consisted of solvent A (water containing 0.05% trifluoroacetic acid) and solvent B (acetonitrile) in a ratio of 75:25 (v/v). […]
# The ACE inhibition rate (%) was calculated using the following equation:(1) ACE Inhibitory rate%=Ablank−Asample/Ablank×100 where Ablank is the peak area of HA in the blank control test, and Asample is the peak area of HA in the sample test. […]
# [9] = system: ACE; set-up: method as in 3 sources, ref 40 = [40]; PMID 38384691; doi:10.1016/j.fochx.2024.101211; 40. Wei G. Wang T. Li Y. He R. Huang A. Wang X. Identification, Structural Characterization, and Molecular Dynamic Simulation of ACE Inhibitory Peptides in Whey Hydrolysates from Chinese Rushan Cheese ||| ref 41 = [41]; PMID 39250996; doi:10.1016/j.ijbiomac.2024.135469; 41. Wang S. Zhang L. Wang H. Liu J. Hu Y. Tu Z. Angiotensin Converting Enzyme (ACE) Inhibitory Peptide from the Tuna ( Thunnus thynnus ) Muscle: Screening, Interaction Mechanism and Stability Int. J. ||| ref 42 = [42]; PMID 37793525; doi:10.1016/j.ijbiomac.2023.127196; 42. Wang S. Zhang L. Wang H. Hu Z. Xie X. Chen H. Tu Z. Identification of Novel Angiotensin Converting Enzyme (ACE) Inhibitory Peptides from Pacific Saury: In Vivo Antihypertensive Effect and Transpor; conditions: cited from earlier work
molecule,measurement,setting,value
"OO [H2O2, hydrogen peroxide]",GSH-Px activity,[1],119.49 ± 3.94 U/mg prot
same,SOD activity,[2],67.47 ± 9.93 U/mg prot
"Angiotensin II (DRVYIHPF; Angiotensin-2; UniProt P01019 25-32, looked up) [Ang II, used to induce endothelial dysfunction]",ET-1 content,[3],15.65 ± 0.83 pg/mg prot
same,NO level,[4],58.95 ± 4.31 μmol/g prot
same,Migration rate,"[5]; 6 h, control 35.95 ± 1.08%",42.44 ± 2.12%
same,Migration rate,"[5]; 24 h, control 79.33 ± 0.48%",89.68 ± 1.47%
SPGPW [identified from Lophius litulon],Docking interactions with ACE,[6]; monkfish swim bladder,formed a hydrogen bond with the catalytic residue His387
same,IC50,[7]; from Lophius litulon,1310 µM
FPPDVA,IC50,[7]; from tuna dark muscle hydrolysates,87.1 ± 1.02 µM
VDRYF [from skipjack tuna muscle],Docking interactions with ACE,[6]; skipjack tuna muscle,"formed hydrogen bonds with Ala354 and Tyr523 within S1 pocket, respectively"
SLPNYHPSPR [from fermented black sesame seed],Docking interactions with ACE,[6]; fermented black sesame seed,strong ACE inhibition due to direct Zn^2+ coordination
QWHDKIF [RJP-derived peptide; synthesized],ACE-inhibitory activity in vitro (comparison in words),[8],PYPDWSFAK and RPYPDWSF exhibited significantly higher ACE-inhibitory activity in vitro than FDVDRW and QWHDKIF
LEPWR [from Pacific saury],ACE inhibition mode,[9]; from Pacific saury,mixed-type ACE inhibition
KWEKPF [from Chinese Rushan cheese by-products],ACE inhibition mode,[9]; from Chinese Rushan cheese by-products,mixed-type ACE inhibition
FDVDRW [RJP-derived peptide; synthesized],ACE-inhibitory activity in vitro (comparison in words),[8],PYPDWSFAK and RPYPDWSF exhibited significantly higher ACE-inhibitory activity in vitro than FDVDRW and QWHDKIF
ITAPHW [from fermented black sesame seed],Docking interactions with ACE,[6]; fermented black sesame seed,strong ACE inhibition due to direct Zn^2+ coordination
SEGPK [identified from Lophius litulon],Docking interactions with ACE,[6]; monkfish swim bladder,interacted with Ala354 and Tyr523 via hydrogen bonding and hydrophobic interactions
same,IC50,[7]; from Lophius litulon,1210 µM
FDGPY [identified from Lophius litulon],Docking interactions with ACE,[6]; monkfish swim bladder,interacted with Ala354 and Tyr523 via hydrogen bonding and hydrophobic interactions
same,IC50,[7]; from Lophius litulon,1570 µM
LTGCP [from tuna (Thunnus thynnus) muscle],ACE inhibition mode,[9]; from tuna (Thunnus thynnus) muscle,mixed-type ACE inhibition
